Literature values in patent US20160279057A1, “Azelastine Formulations For Intranasal Nebulization And Irrigation” (CMPD LICENSING, LLC, priority 2015, published 2016).
Counter-ions that a name gives are not always drawn.

- solubility in ethanol (ethanol): slightly soluble
- solubility in glycerin (glycerin): slightly soluble
- solubility in methanol (methanol): sparingly soluble
- solubility in octanol (octanol): slightly soluble
- solubility in propylene glycol (propylene glycol): sparingly soluble
- solubility in water (water): sparingly soluble
SMILES: CN1CCCC(n2nc(Cc3ccc(Cl)cc3)c3ccccc3c2=O)CC1 (stereo not drawn) [Azelastine hydrochloride, azelastine hydrochloride]
